Assay results reported in ChEMBL document CHEMBL5584353, “Design, Synthesis, and Biological Evaluation of Potent EZH2/LSD1 Dual Inhibitors for Prostate Cancer” (J Med Chem, 2024).
Calls of active or inactive are those of the source. The rule behind the calls is not given here.

Legend:
CWR22R [1] = conditions: Homo sapiens, dose 80.0 mg/kg, route ip, time 31.0 day
[2] = Toxicity in BALB/c mouse xenografted with human 22Rv1 cells assessed as change in body weight at 80 mg/kg,ip administrated daily for 31 days; type: organism-based, CWR22R; conditions: in vivo, 744 h, time 31 day
CWR22R [3] = assay: Induction of apoptosis in human 22Rv1 cells assessed as upregulation of p21 expression incubated for 48 hr by Western blotting analysis; type: functional, cell-based
LNCaP [4] = assay: Induction of cell cycle arrest in human LNCaP cells assessed as accumulation of cells at G0/G1 phase incubated for 72 hrs by propidium iodide/RNase staining based flow cytometric analysis; type: functional
LNCaP [5] = assay: Growth inhibition of human LNCaP cells incubated for 6 to 7 days by MTS assay; type: functional; conditions: time 6-7 day
PC-3 = assay: Antimigratory activity in human PC-3 cells assessed as upregulation of E-cadherin expression at 3 to 10 uM incubated for 48 hrs by Western blotting analysis; type: functional, cell-based; conditions: dose 3-10 µM
CWR22R [6] = assay: Induction of apoptosis in human 22Rv1 cells assessed as upregulation of cleaved PARP expression incubated for 48 hr by Western blotting analysis; type: functional, cell-based
[7] = Metabolic stability in Sprague-Dawley rat hepatocyte assessed as intrinsic clearance at 20 uM incubated for 60 mins by HPLC-MS/MS analysis; type: ADME, cell-based; conditions: hepatocytes, 1 h
[8] = Inhibition of LSD2 (unknown origin); parameters: species or system Homo sapiens
[9] = Metabolic stability in Sprague-Dawley rat hepatocyte assessed as compound remaining at 20 uM by HPLC-MS/MS analysis; type: ADME, cell-based; conditions: hepatocytes, read-out: Stability
[10] = Clearance in BALB/c mouse at 50 mg/kg,po measured upto 24 hrs by HPLC-MS/MS analysis; type: ADME, organism-based; conditions: in vivo
[11] = Toxicity in BALB/c mouse xenografted with human 22Rv1 cells assessed as liver morphological change at 80 mg/kg,ip administrated daily for 31 days; type: organism-based, CWR22R; conditions: in vivo, 744 h, time 31 day
MDA-MB-231 = assay: Antiproliferative activity against human MDA-MB-231 cells assessed as inhibition of cell growth incubated for 6 to 7 days by MTS assay; type: functional, cell-based; conditions: time 6-7 day
CWR22R [12] = assay: Synergistic antiproliferative activity against human 22Rv1 cells assessed as inhibition of cell growth at 6.25 to 100 uM incubated for 6 to 7 days in presence of enzalutamide by MTS assay; type: functional, cell-based; conditions: dose 6.25-100 µM, time 6-7 day
CWR22R [13] = assay: Growth inhibition of human 22Rv1 cells incubated for 6 to 7 days by MTS assay; type: functional; conditions: time 6-7 day
[14] = Toxicity in BALB/c mouse xenografted with human 22Rv1 cells assessed as heart morphological change at 80 mg/kg,ip administrated daily for 31 days; type: organism-based, CWR22R; conditions: in vivo, 744 h, time 31 day
MV4-11 = assay: Antiproliferative activity against human MV4-11 cells assessed as inhibition of cell growth incubated for 6 to 7 days by MTS assay; type: functional, cell-based; conditions: time 6-7 day
LNCaP [15] = assay: Antimigratory activity in human LNCaP cells assessed as upregulation of E-cadherin expression at 3 to 10 uM incubated for 48 hrs by Western blotting analysis; type: functional, cell-based; conditions: dose 3-10 µM
SU-DHL-2 = assay: Antiproliferative activity against human SU-DHL-2 cells assessed as inhibition of cell growth incubated for 6 to 7 days by MTS assay; type: functional, cell-based; conditions: time 6-7 day
LNCaP C4-2B = assay: Antiproliferative activity against human LNCaP C4-2B cells assessed as inhibition of cell growth incubated for 6 to 7 days by MTS assay; type: functional, cell-based; conditions: time 6-7 day
[16] = Metabolic stability in Sprague-Dawley rat hepatocyte assessed as half life at 20 uM incubated for 60 mins by HPLC-MS/MS analysis; type: ADME, cell-based; conditions: hepatocytes
CWR22R [17] = conditions: Homo sapiens, dose 80.0 mg/kg, route ip, time 31.0 day; remark: listed apart in the source
LNCaP [18] = assay: Induction of apoptosis in human LNCaP cells at 1 to 10 uM incubated for 5 days by Annexin V-FITC/PI staining based flow cytometric analysis; type: functional, cell-based; conditions: dose 1-10 µM, time 5.0 day
CWR22R [19] = assay: Antiproliferative activity against human 22Rv1 cells assessed as inhibition of cell growth incubated for 6 to 7 days by MTS assay; type: functional, cell-based; conditions: time 6-7 day
[20] = Toxicity in BALB/c mouse xenografted with human 22Rv1 cells assessed as lung morphological change at 80 mg/kg,ip administrated daily for 31 days; type: organism-based, CWR22R; conditions: in vivo, 744 h, time 31 day
[21] = Cmax in BALB/c mouse at 50 mg/kg,ip measured upto 24 hrs by HPLC-MS/MS analysis; type: ADME, organism-based; conditions: in vivo
[22] = target: T1, Lysine-specific histone demethylase 1A (Homo sapiens, UniProt O60341); assay: Inhibition of LSD1 in human 22Rv1 cells assessed as downregulation of AR-V7 expression at 1 to 20 uM incubated for 48 hrs by Western blotting analysis; type: cell-based; conditions: dose 1-20 µM
[23] = Clearance in BALB/c mouse at 50 mg/kg,iv measured upto 24 hrs by HPLC-MS/MS analysis; type: ADME, organism-based; conditions: in vivo
[24] = Metabolic stability in Sprague-Dawley rat hepatocyte assessed as compound remaining at 20 uM incubated for 120 mins by HPLC-MS/MS analysis; type: ADME, cell-based; conditions: hepatocytes, read-out: Stability
[25] = Oral bioavailability in BALB/c mouse at 50 mg/kg measured upto 24 hrs by HPLC-MS/MS analysis; type: ADME, organism-based; conditions: in vivo
CWR22R [26] = assay: Induction of apoptosis in human 22Rv1 cells assessed as upregulation of cleaved caspase-3 expression incubated for 48 hr by Western blotting analysis; type: functional, cell-based
[27] = target: T1, Lysine-specific histone demethylase 1A; assay: Inhibition of LSD1 in human LNCaP cells assessed as upregulation of H3K9me2 expression at 1 to 5 uM incubated for 5 days by Western blotting analysis; type: cell-based; conditions: dose 1-5 µM, time 5.0 day
U-937 = assay: Antiproliferative activity against human U-937 cells assessed as inhibition of cell growth incubated for 6 to 7 days by MTS assay; type: functional, cell-based; conditions: time 6-7 day
[28] = AUC (0 to infinity) in BALB/c mouse at 50 mg/kg,po measured upto 24 hrs by HPLC-MS/MS analysis; type: ADME, organism-based; conditions: in vivo
CWR22R [29] = assay: Induction of apoptosis in human 22Rv1 cells at 5 uM incubated for 5 days by Annexin V-FITC/PI staining based flow cytometric analysis (reference value: 8.97 %); type: functional; conditions: time 5 day
MOLM-13 = assay: Antiproliferative activity against human MOLM-13 cells assessed as inhibition of cell growth incubated for 6 to 7 days by MTS assay; type: functional, cell-based; conditions: time 6-7 day
CWR22R [30] = assay: Antitumor activity against human 22Rv1 cells xenografted in BALB/c mouse assessed as reduction in tumor weight at 80 mg/kg,ip administrated daily for 31 days; type: functional, organism-based; conditions: time 31.0 day
LNCaP [31] = assay: Antiproliferative activity against human LNCaP cells assessed as inhibition of cell growth incubated for 6 to 7 days by MTS assay; type: functional, cell-based; conditions: time 6-7 day
BEAS-2B = assay: Cytotoxicity against human BEAS-2B cells incubated for 6 to 7 days by MTS assay; type: toxicity, cell-based; conditions: time 6-7 day
LNCaP [32] = assay: Antimigratory activity in human LNCaP cells assessed as downregulation of N-cadherin expression at 3 to 10 uM incubated for 48 hrs by Western blotting analysis; type: functional, cell-based; conditions: dose 3-10 µM
CWR22R [33] = assay: Antimigratory activity in human 22Rv1 cells assessed as downregulation of N-cadherin expression at 3 to 10 uM incubated for 48 hrs by Western blotting analysis; type: functional, cell-based; conditions: dose 3-10 µM
A549 = assay: Antiproliferative activity against human A549 cells assessed as inhibition of cell growth incubated for 6 to 7 days by MTS assay; type: functional, cell-based; conditions: time 6-7 day

With `CCN(c1cc(-c2ccc([C@@H]3C[C@H]3N(CC3CCOCC3)C(=O)OC(C)(C)C)cc2)cc(C(=O)NCc2c(C)cc(C)[nH]c2=O)c1C)C1CCOCC1` (racemic) the inhibition (CWR22R [1]) was “Active”, the Activity [2] was “Non-Toxic” and the Activity (CWR22R [3]) was “Dose-Dependent Effect”. The Activity (LNCaP [4]) was “Dose-Dependent Effect”, the GI50 (LNCaP [5]) was 1.63 µM and the Activity (PC-3) was “Active”. For the same molecule, the Activity (CWR22R [6]) was “Dose-Dependent Effect”, the CLH [7] was 4 µL/min/mg and the IC50 [8] was 16.6 µM. For the same molecule, the remaining at 20 µM [9] was 100%, the CL/F [10] was 20 mL/min/kg and the Activity [11] was “Non-Toxic”. The Activity (MDA-MB-231) was “Active”, the Activity (CWR22R [12]) was “Active” and the GI50 (CWR22R [13]) was 3.96 µM. The Activity [14] was “Non-Toxic”, the Activity (MV4-11) was “Active” and the Activity (LNCaP [15]) was “Active”. The Activity (SU-DHL-2) was “Active”, the Activity (LNCaP C4-2B) was “Active” and the half-life at 20 µM [16] was 5.5 h. For the same molecule, the inhibition (CWR22R [17]) was “Active”, the Activity (LNCaP [18]) was “Active” and the Activity (CWR22R [19]) was “Active”. For the same molecule, the Activity [20] was “Non-Toxic”, the Cmax [21] was 20600 ng/mL and the inhibition [22] was “Active”. For the same molecule, the clearance [23] was 6.67 mL/min/kg, the remaining at 2 h, 20 µM [24] was 75.8% and the bioavailability [25] was 32.9%. For the same molecule, the Activity (CWR22R [26]) was “Dose-Dependent Effect”, the inhibition [27] was “Active” and the Activity (U-937) was “Active”. For the same molecule, the AUC(0-inf) [28] was 41400 ng·h/mL, the Activity (CWR22R [29]) was 30.97% and the Activity (MOLM-13) was “Active”. The Activity (CWR22R [30]) was “Active”, the Activity (LNCaP [31]) was “Active” and the Activity (BEAS-2B) was “Non-Toxic”. For the same molecule, the Activity (LNCaP [32]) was “Active”, the Activity (CWR22R [33]) was “Active” and the Activity (A549) was “Active”.
